Measured values: US20080139664A1, “ANTI-GLYCATION AGENTS FOR PREVENTING AGE-, DIABETES-, AND SMOKING-RELATED COMPLICATIONS” (NATIONAL RESEARCH COUNCIL OF CANADA, priority 2001, published 2008)
Like-named read-outs stand apart in the source and are kept apart here.

Legend:
[1] = test system: bovine serum albumin (BSA); experiment: Fluorescamine assay of free primary amino groups of BSA incubated with D-ribose; format: biochemical; details: for Unreacted amino group: free primary amino group on BSA after 5 days at 37° C., agent at 16.8 times IC50, 64% without agent
Protocol: Fluorescamine assay (Yeboah F. et al., J. Agric. Food Chem. 48, 2766-2774 (2000)) was performed on incubated mixtures of BSA and D-ribose, with or without the identified anti-glycation agents. The mixtures contained BSA (0.075 mM protein concentration or 4.53 mM of Lys residue concentration) and D-ribose (50 mM). […] The fluorescamine assay determines the number of free lysine residues of BSA. In this experiment, the final volume of the incubation mixtures was 10 mL and the incubation time was 5 days at 37° C. Prior to the fluorescamine assay, the proteins were isolated by reverse phase HPLC. The protein content was determined using the Bio-Rad protein determination reagent (Bradford method). The fluorescamine assay was done in triplicate.

[2] = test system: bovine serum albumin (BSA); experiment: Maillard fluorescence-based assay of AGEs formation, IC50 determination (BSA + D-ribose); details: for IC50: inhibition of Maillard fluorescence development, 0.075 mM BSA, 50 mM D-ribose, 37° C., 5 days
lysozyme = experiment: ESI-MS of lysozyme glycoforms after incubation with D-ribose; details: 37° C., 5 days; for Peak area as % of total area of all glycoforms, 14,569: lysozyme + 2D-ribose − 2H2O (14,569 Da); for Peak area as % of total area of all glycoforms, 14,551: lysozyme + 2D-ribose − 3H2O (14,551 Da); for Peak area as % of total area of all glycoforms, 14,533: lysozyme + 2D-ribose − 5H2O (14,533 Da); for Peak area as % of total area of all glycoforms, 14,515: lysozyme + 2D-ribose − 6H2O (14,515 Da); for Peak area as % of total area of all glycoforms, 14,419: lysozyme + D-ribose − 2H2O (14,419 Da); for Peak area as % of total area of all glycoforms, 14,401: lysozyme + D-ribose − 3H2O (14,401 Da); for Peak area as % of total area of all glycoforms, 14,437: lysozyme + D-ribose − H2O (14,437 Da); for Peak area as % of total area of all glycoforms, 14,496: lysozyme + D-ribose − H2O with one carboxymethylated Lys residue (14,496 Da); for Peak area as % of total area of all glycoforms, 14,364: lysozyme with one carboxymethylated Lys residue (14,364 Da); for Peak area as % of total area of all glycoforms, 14,305: unmodified lysozyme (14,305 Da);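 for all read-outs here: lysozyme incubated with D-ribose, with or without anti-glycation agents, then separated by reversed-phase HPLC and analysed by electrospray mass spectrometry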
Protocol: The effect of anti-glycation agents on the accumulation of glycated forms (glycoforms) of protein was evaluated by using electrospray mass spectrometry (ESI-MS). As the molecular mass of BSA was too large to monitor the small mass changes of its glycoforms, lysozyme was incubated with D-ribose and anti-glycants. Lysozyme and its glycoforms were isolated by RP-HPLC and analyzed by mass spectrometry.
Samples of lysozyme (0.756 mM; 4.54 mM of Lys residues) and D-ribose (50 mM) were incubated in the presence and absence of the selected anti-glycation agents at 37° C. for 5 days and subjected to electrospray mass spectrometry (ESI-MS) in order to characterize the protein intermediates as well as carboxymethylated lysozyme. Prior to MS measurements, the proteins were isolated by reversed phase-HPLC and were semi-dried by freeze drying.

[3] = test system: bovine serum albumin (BSA)

IC50 [3]	Structure (SMILES)	Unreacted amino group [1]	IC50 [2]	Peak area as % of total area of all glycoforms, 14,569 (lysozyme)	Peak area as % of total area of all glycoforms, 14,551 (lysozyme)	Peak area as % of total area of all glycoforms, 14,533 (lysozyme)	Peak area as % of total area of all glycoforms, 14,515 (lysozyme)	Peak area as % of total area of all glycoforms, 14,419 (lysozyme)	Peak area as % of total area of all glycoforms, 14,401 (lysozyme)	Peak area as % of total area of all glycoforms, 14,437 (lysozyme)	Peak area as % of total area of all glycoforms, 14,496 (lysozyme)	Peak area as % of total area of all glycoforms, 14,364 (lysozyme)	Peak area as % of total area of all glycoforms, 14,305 (lysozyme)	maximum percentage of the inhibition ([2]; Maillard fluorescence, listed if significantly lower than 100%)	effect on protection of amino groups of BSA ([1]; in words)
120 µM	O=Cc1ccc(O)c(O)c1 [3,4-Dihydroxybenzaldehyde]	32%		1.8%	3.0%	0.0%	1.2%	3.1%	0.0%	10.9%	1.5%	0.0%	78.6%		seem to accelerate the modification of the amino groups
110 µM	O=c1c(O)c(-c2ccccc2)oc2cc(O)cc(O)c12 [Galangin]	64%		4.3%	5.2%	2.2%	1.0%	10.2%	0.8%	20.2%	0.0%	4.1%	48.0%		
75 µM	N[C@@H](Cc1ccc(O)c(O)c1)C(=O)O [L-DOPA]	60%		3.0%	0.7%	0.8%	0.7%	2.1%	1.8%	21.1%	1.2%	3.9%	64.7%		
350 µM	CS(=O)(=O)Nc1ccc([N+](=O)[O-])cc1Oc1ccccc1 [Nimesulide]	69%		5.2%	3.8%	2.3%	1.3%	7.6%	0.0%	22.6%	0.0%	3.4%	49.8%		
330 µM	CCCOC(=O)c1cc(O)c(O)c(O)c1 [Propyl gallate]	28%		0.0%	0.0%	0.0%	0.0%	1.3%	0.0%	7.7%	0.0%	4.4%	86.6%		

More lines, now with the values behind:

Structure (SMILES)	IC50 [3]	Unreacted amino group [1]	IC50 [2]	Peak area as % of total area of all glycoforms, 14,569 (lysozyme)	Peak area as % of total area of all glycoforms, 14,551 (lysozyme)	Peak area as % of total area of all glycoforms, 14,533 (lysozyme)	Peak area as % of total area of all glycoforms, 14,515 (lysozyme)	Peak area as % of total area of all glycoforms, 14,419 (lysozyme)	Peak area as % of total area of all glycoforms, 14,401 (lysozyme)	Peak area as % of total area of all glycoforms, 14,437 (lysozyme)	Peak area as % of total area of all glycoforms, 14,496 (lysozyme)	Peak area as % of total area of all glycoforms, 14,364 (lysozyme)	Peak area as % of total area of all glycoforms, 14,305 (lysozyme)	maximum percentage of the inhibition ([2]; Maillard fluorescence, listed if significantly lower than 100%)	effect on protection of amino groups of BSA ([1]; in words)
O=[N+]([O-])c1ccc(O)c2ncccc12 [Nitroxoline]		76%	300 µM	1.4%	2.1%	1.2%	1.2%	7.8%	3.3%	11.0%	1.0%	4.2%	66.7%		
O=C(O[C@@H]1Cc2c(O)cc(O)cc2O[C@@H]1c1cc(O)c(O)c(O)c1)c1cc(O)c(O)c(O)c1 [(−)-Epigallocatechin gallate]		58%	48 µM	2.9%	0.8%	1.7%	0.0%	2.6%	0.0%	20.9%	0.0%	2.0%	69.1%	55%)	
O=c1cc(-c2ccc(O)c(O)c2)oc2cc(O)cc(O)c12 [Luteolin]	60 µM	60%		5.2%	3.0%	3.9%	1.4%	6.3%	2.1%	21.2%	0.8%	1.1%	51.4%		
O=c1oc2c(O)c(O)cc3c(=O)oc4c(O)c(O)cc1c4c23 [Ellagic acid]	40 µM	52%		0.0%	0.0%	0.0%	0.0%	1.2%	0.0%	14.6%	0.0%	1.1%	83.1%		
NCCc1ccc(O)c(O)c1 [Dopamine]	62 µM	60%		1.2%	0.0%	0.0%	0.0%	1.6%	1.3%	13.4%	0.0%	3.3%	79.2%		
O=c1cc(-c2ccccc2)oc2cc(O)c(O)c(O)c12 [Baicalein]	49 µM	48%		0.0%	0.0%	0.0%	0.0%	0.0%	0.0%	5.9%	0.0%	0.0%	94.1%		
C[C@](N)(Cc1ccc(O)c(O)c1)C(=O)O [L-α-Methyl-DOPA]	73 µM	47%		2.7%	0.5%	0.1%	0.5%	1.5%	2.1%	18.3%	1.0%	3.5%	69.4%		
Oc1ccc(CC2NCCc3cc(O)c(O)cc32)cc1O (racemic) [(±)-Tetrahydropapaveroline]	90 µM	51%		2.3%	0.7%	0.8%	0.0%	2.8%	2.1%	17.6%	0.9%	3.9%	68.9%		
